Among the data in patent US9133164B2, “MIF inhibitors and their uses” (INNOV88 LLC, priority 2011, dated 2015) are IC50 and inhibition values, retold here.

One experiment addresses T1, Native human MIF (Homo sapiens, UniProt P14174).
T1 sequence (P14174 2-115 limits assumed): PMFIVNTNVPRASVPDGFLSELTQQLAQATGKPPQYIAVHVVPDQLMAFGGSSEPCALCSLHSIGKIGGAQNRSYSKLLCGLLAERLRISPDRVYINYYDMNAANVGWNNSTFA
The experiment in a line: MIF tautomerase activity assay (HPP substrate). The note with it: absorbance at 300 nm. Type of experiment: biochemical. As for the experimental part: (§1) The ability of candidate compounds to inhibit this tautomerase activity is quantitated by wing hydroxyphenyl pyruvic acid (HPP) as a substrate and following the increase in absorbance due to the enzymatic formation of the HPP enol-borate complex at 300 nm in the absence and presence of a test compound. The IC50 value of compounds was determined by plotting the initial velocities determined at 300 nm as a function of a test compound's concentration. Assays were carried out in a 96 or 384 well plate format.
Representative MIF inhibitors were tested in the assay described above and the results tabulated in Table 1 wherein “A” represents ≦1 μM; “B” represents >1 μM and ≦100 μM; “C” represents >100 μM

The subject of experiment [1] is anti-CD3/anti-CD28-stimulated PBMCs. The experiment in a line: Th17-specific cytokine production in anti-CD3/anti-CD28-stimulated human PBMCs (ELISA). Type of experiment: cell-based. The note with it: PBMC, compound at 2.5 uM, 72 hours. From the text: MIF is secreted by monocytes/macrophages, activated T cells and several effector cells that play an important role in the perpetuation of inflammatory responses of the disease pathogenesis of several autoimmune and inflammatory disorders. MIF promotes the production of proinflammatory mediators such as tumor necrosis factor-α (TNF-α), interleukin (IL)-1β, IL-6 and IL-8 acting in an autocrine and paracrine function in the induction of proinflammatory responses. MIF has also been reported to stimulate the production of IL-17, a T helper 17 (Th17)-specific cytokine critical to the pathogenesis of several autoimmune and inflammatory diseases. […] Mono-Mac-6 Cells: The cellular efficacy of compound candidates is determined using the human monocytic cell line, Mono-Mac-6 cells (MM6 cells) as it has been shown that MM6 cells abundantly express MIF receptors CD74 and CXCR4. MIF-mediated signal transduction through these receptors may be important for the production of inflammatory mediators, including TNF-α, IL-1β, IL-6, IL-8, interferon-γ (IFN-γ) and prostaglandin E2 (PGE2) in these cells. To induce the production of inflammatory mediators, MM6 cells will be plated at a final concentration of 5×10^5 cells/ml in RPMI 1640 medium containing 1% heat-inactivated low-pyrogen fetal bovine serum, 2 mM GlutaMAX-I, 1% non-essential amino acids, 1% sodium pyruvate, 100 units/ml penicillin G and 100 μg/ml streptomycin (Gibco BRL Life Technologies). Cells will be stimulated with 100 ng/ml rhMIF purchased commercially or generated in house with or without inhibitor for 20 h at 37° C. with 5% CO2. The supernatants are stored at […] until they are to be assayed. The levels of inflammatory mediators will be determined using commercial :ELISA kits (eBiosciences). Human Peripheral Blood Mononuclear Cells (PBMCs): The cellular efficacy of compound candidates in inhibiting the production of proinflammatory mediators TNF-α, IL-1β, IL-6 and IL-8 following lipopolysaccharide (LPS) and rhMIF stimulation, and the production of T helper 17 (Th17)-specific cytokines IL-17F and IL-22 following anti-CD3/anti-CD28 stimulation, are determined in human PBMCs. To induce the production of proinflammatory cytokine mediators, cryopreserved human PBMCs (Cellular Technology Ltd.) are plated at a final concentration of 2×10^5 cells/ml in RPMI 1640 medium containing 1% heat-inactivated fetal bovine serum, 1% L-Glutamine and 1% Penicillin/Streptomycin (Lonza). […] Cell viability is determined using PrestoBlue™ Cell Viability Reagent (Invitrogen). The cytokine production levels of TNF-α, IL-1β, IL-6, IL-8, IL-17F and IL-22 are determined using commercial ELISA kits (eBiosciences). […]
Background: ELISA stands for enzyme-linked immunosorbent assay.

For the next experiment, the system named is LPS-stimulated PBMCs. The experiment in a line: Cytokine production in LPS-stimulated human PBMCs (ELISA). Type of experiment: cell-based. The conditions noted are these: Homo sapiens, PBMC, LPS-stimulated PBMCs, 1 hour preincubation, 20 hours; for inhibition at 2.5 µM: compound at 2.5 uM; for inhibition at 25 µM: compound at 25 uM. From the text:
MIF is secreted by monocytes/macrophages, activated T cells and several effector cells that play an important role in the perpetuation of inflammatory responses of the disease pathogenesis of several autoimmune and inflammatory disorders. MIF promotes the production of proinflammatory mediators such as tumor necrosis factor-α (TNF-α), interleukin (IL)-1β, IL-6 and IL-8 acting in an autocrine and paracrine function in the induction of proinflammatory responses. MIF has also been reported to stimulate the production of IL-17, a T helper 17 (Th17)-specific cytokine critical to the pathogenesis of several autoimmune and inflammatory diseases. […] Mono-Mac-6 Cells: The cellular efficacy of compound candidates is determined using the human monocytic cell line, Mono-Mac-6 cells (MM6 cells) as it has been shown that MM6 cells abundantly express MIF receptors CD74 and CXCR4. MIF-mediated signal transduction through these receptors may be important for the production of inflammatory mediators, including TNF-α, IL-1β, IL-6, IL-8, interferon-γ (IFN-γ) and prostaglandin E2 (PGE2) in these cells. To induce the production of inflammatory mediators, MM6 cells will be plated at a final concentration of 5×10^5 cells/ml in RPMI 1640 medium containing 1% heat-inactivated low-pyrogen fetal bovine serum, 2 mM GlutaMAX-I, 1% non-essential amino acids, 1% sodium pyruvate, 100 units/ml penicillin G and 100 μg/ml streptomycin (Gibco BRL Life Technologies). Cells will be stimulated with 100 ng/ml rhMIF purchased commercially or generated in house with or without inhibitor for 20 h at 37° C. with 5% CO2. The supernatants are stored at […] until they are to be assayed. The levels of inflammatory mediators will be determined using commercial :ELISA kits (eBiosciences). Human Peripheral Blood Mononuclear Cells (PBMCs): The cellular efficacy of compound candidates in inhibiting the production of proinflammatory mediators TNF-α, IL-1β, IL-6 and IL-8 following lipopolysaccharide (LPS) and rhMIF stimulation, and the production of T helper 17 (Th17)-specific cytokines IL-17F and IL-22 following anti-CD3/anti-CD28 stimulation, are determined in human PBMCs. To induce the production of proinflammatory cytokine mediators, cryopreserved human PBMCs (Cellular Technology Ltd.) are plated at a final concentration of 2×10^5 cells/ml in RPMI 1640 medium containing 1% heat-inactivated fetal bovine serum, 1% L-Glutamine and 1% Penicillin/Streptomycin (Lonza). Cells are pre-incubated with or without inhibitor compounds dissolved in DMSO for 1 hour, then stimulated with LPS (Sigma Aldrich) or rhMIF to yield final concentrations of <0.1% DMSO, 100 ng/ml LPS and the compound concentration of interest. The potency of the compound candidates in inhibiting cytokine production is compared, to other small molecule MIF inhibitor standards ISO-1 (EMD Chemicals) N-acetyl-p-benzoquinone imine (NAPQI) and Ibudilast (TCI America). Cells were incubated for 20 hours at 37° C., 5% CO2. For the Th17-specific cytokine production assay, cells are stimulated with 5 ug/mL plate immobilized anti-CD3 (eBioscience) and 2 ug/mL soluble anti-CD28 (eBioscience) in the presence or absence of inhibitor compounds dissolved in DMSO to yield final compound concentrations of interest at <0.1% DMSO. Cells were incubated for 72 hours at 37° C. and 5% CO2. The supernatants are stored at −20° C. until they are to be assayed by ELISA. Cell viability is determined using PrestoBlue™ Cell Viability Reagent (Invitrogen). The cytokine production levels of TNF-α, IL-1β, IL-6, IL-8, IL-17F and IL-22 are determined using commercial ELISA kits (eBiosciences). Human Rheumatoid Arthritis Synovial Fibroblast (RASF) Cell Line: RASF cells are cultured in Dulbecco's modified Eagle's medium with 15% FBS, 1% glutamine, and 1% penicillin/streptamycin (all from Gibco (Invitrogen), Gaithersburg, Md.). […]

The target in a further experiment is T2, MIF (Homo sapiens, UniProt P14174).
T2 sequence (P14174 2-115 limits assumed): T1 sequence (P14174 2-115 limits assumed)
The experiment in a line: Time dependence in the MIF tautomerase activity assay (preincubation). Type of experiment: biochemical. The method, then: as §1
The MIF tautomerase and cytokine inhibitor Compound 1 was designed as a potential irreversible inhibitor of MIF tautomerase activity. In an effort to investigate this mechanism, time dependent inhibitor analysis was carried out. In this experiment MIF was preincubated [P.I.] with Compound 1 for either 0 minutes, 20 minutes or 60 minutes followed by tautomerase enzyme activity determination.
Compound 1 was preincubated with MIF as indicated (0 min-60 min) and, a tautomerase dose-response analysis was carried out.

Setting [2] is: read-out: percent inhibition of IL-17F production.
Where [3] appears, read: read-out: percent inhibition of IL-22 production.
Setting [4] is: read-out: percent inhibition of IL-1β production.
Where [5] appears, read: read-out: percent inhibition of IL-6 production.
The mark [6] stands for this setting: read-out: percent inhibition of IL-8 production.
[7] abbreviates: read-out: percent inhibition of TNF-α production.

pIC50: −log10 of the molar value. Where two headings read alike, the source gives them in different places. A value given as a limit tells only on which side of the number the result lay.

In the case of `N#Cc1c(NC2CN(C(=O)CCl)C2)c2ccccc2n(Cc2ccc(F)cc2)c1=O` [Compound 1, 4-[1-(2-Chloro-acetyl)-azetidin-3-ylamino]-1-(4-fluoro-benzyl)-2-oxo-1,2-dihydro-quinoline-3-carbonitrile], the negative-log IC50 (pIC50) – broadly, the IC50 on a negative log10 scale, so that one unit is a factor of ten – was 4.00 to 6.00 on Native human MIF; 4.62 on MIF (0 minutes, no preincubation with MIF); 5.22 at MIF (20 minutes preincubation with MIF); 5.52 against MIF (60 minutes preincubation with MIF). For the same compound, the inhibition (in general, the change of the read-out against control, counted positive when it falls) at 2.5 µM was above 70% in experiment [1] (setting [2]); above 70% in experiment [1] (setting [3]); above 70% with LPS-stimulated PBMCs (setting [4]); 10 to 50% in the experiment on LPS-stimulated PBMCs (setting [5]); 10 to 50% with LPS-stimulated PBMCs (setting [6]); 10 to 50% in the experiment on LPS-stimulated PBMCs (setting [7]). Further, the inhibition at 25 µM in the experiment on LPS-stimulated PBMCs (setting [4]) is above 70%; in the experiment on LPS-stimulated PBMCs (setting [5]), above 70%; in the experiment with LPS-stimulated PBMCs (setting [6]), 50 to 70%; in the experiment with LPS-stimulated PBMCs (setting [7]), above 70%.
On Native human MIF, `C=CC(=O)N1CCN(c2c(C#N)c(=O)n(Cc3ccc(F)cc3)c3ccccc23)CC1` [Compound 2, 4-(4-acryloylpiperazin-1-yl)-1-(4-fluorobenzyl)-2-oxo-1,2-dihydroquinoline-3-carbonitrile] showed a pIC50 of 4.00 to 6.00. The inhibition at 2.5 µM in experiment [1] (setting [2]) is above 70%; in experiment [1] (setting [3]) it was 10 to 50%; with LPS-stimulated PBMCs (setting [4]), above 70%; in the experiment on LPS-stimulated PBMCs (setting [5]), below 10%; in the experiment with LPS-stimulated PBMCs (setting [6]) it was below 10%; in the experiment on LPS-stimulated PBMCs (setting [7]), 10 to 50%. In addition, the inhibition at 25 µM was above 70% with LPS-stimulated PBMCs (setting [4]), below 10% with LPS-stimulated PBMCs (setting [5]), below 10% with LPS-stimulated PBMCs (setting [6]) and above 70% in the experiment on LPS-stimulated PBMCs (setting [7]).
